Experiments:
MCF10A cells = assay: alamarBlue toxicity in non-tumorigenic MCF10A cells; type: cell-based, human
Text: Considering the promising cytotoxicity results obtained with the cancer cell lines, we also evaluated the potential toxicity of the most efficient derivative (compound 4) in the non-cancerous cell line MCF10A (human mammary epithelial cell line).
Cells were counted and seeded in 96-well plates at a density of 2 × 10^5 cells/mL for HL-60, 2.5 × 10^4 cells/mL for MCF-7, MCF10A and HeLa, 1 × 10^5 cells/mL for HCT116 and HKH-2, all of them in their respective media. The 96-well plates were then treated with a 1:100 dilution of stock concentrations of drugs or EtOH (1% v/v)/DMSO (0.1% v/v) as vehicle control in triplicate. Three blank wells containing 200 µL RPMI with no cells were also set-up as blanks. […] The plates were incubated in darkness at 37 °C for 4–5 h using a Molecular Devices microplate reader, the fluorescence (F) was then read at an excitation wavelength of 544 nm and an emission wavelength of 590 nm. Cell viability was then determined by subtracting the mean blank fluorescence (Fb) from the treated sample fluorescence (Fs) and expressing this as a percentage of the fluorescence of the blanked vehicle control (Fc). […] The results were then plotted as a nonlinear regression, sigmoidal dose-response curves on Prism, from which the IC50 value for each drug was determined. […]
Figure S11. Scatter correlation found between the calculated logP and the HL -60 cytotoxic […]

HL-60 cells = assay: alamarBlue cell viability assay, HL-60; type: cell-based; conditions: Homo sapiens, HL-60, 72 h, alamarBlue, 72 h; read-out: HL-60 IC50 ± SEM
Text: Cell viability and proliferation assays were used to evaluate the in vitro cytotoxicity of all synthesised compounds in a variety of different cancer cell lines using the alamarBlue® viability assay and the results are presented in Table 1 and Table 2. The sensitivity of cancer cells to drugs can often be compromised by PIK3CA, Ras and BRAF mutations. To determine whether such mutations are critical to the efficacy of our new compounds we tested them in a range of cancerous cell lines expressing different mutations. Firstly, we used the HL-60 (human promyelocytic leukaemia, NRas mutated) cell line for general cytotoxicity screening of all compounds. […] Lastly, toxicity against MCF-10A, which is a non-tumorigenic epithelial cell line, was also assessed for one of the most promising compounds (4). The graphs representing the viability results with the HL-60, MCF-7, HeLa, HCT-116, and HKH-2 cancer cell lines for compound 1 and derivatives 2, 3, and 4 are shown in Figures S7–S10 (ESI).
Cells were counted and seeded in 96-well plates at a density of 2 × 10^5 cells/mL for HL-60, 2.5 × 10^4 cells/mL for MCF-7, MCF10A and HeLa, 1 × 10^5 cells/mL for HCT116 and HKH-2, all of them in their respective media. The 96-well plates were then treated with a 1:100 dilution of stock concentrations of drugs or EtOH (1% v/v)/DMSO (0.1% v/v) as vehicle control in triplicate. Three blank wells containing 200 µL RPMI with no cells were also set-up as blanks. After a 72 h incubation, 20 µL of alamarBlue was added to each well. The plates were incubated in darkness at 37 °C for 4–5 h using a Molecular Devices microplate reader, the fluorescence (F) was then read at an excitation wavelength of 544 nm and an emission wavelength of 590 nm. Cell viability was then determined by subtracting the mean blank fluorescence (Fb) from the treated sample fluorescence (Fs) and expressing this as a percentage of the fluorescence of the blanked vehicle control (Fc). […] The results were then plotted as a nonlinear regression, sigmoidal dose-response curves on Prism, from which the IC50 value for each drug was determined. […]
Pharmacy, TCD. It was maintained in Roswell Park Memorial Institute (RPMI) 1640 medium with stable glutamate (GlutaMax I) supplemented with 10% (v/v) fetal bovine serum (FBS), 1% (v/v) penicillin/ streptomycin (pen-strep) and 2 mM L-glutamine. […]
4.4. AlamarBlue ® Cell Viability Assay
Cells were counted and seeded in 96 well plates at a density of 2 × 10^5 cells/mL for HL-60, 2.5× 10^4 cells/mL for MCF-7, MCF10A and HeLa, 1 × 10^5 cells/mL for HCT116 and HKH-2, all of them in their respective media. The 96 well plates were then treated with a 1:100 dilution of stock concentrations of drugs or EtOH (1% v/v)/DMSO (0.1% v/v) as vehicle control in triplicate.
Three blank wells containing 200 µL media with no cells were also set-up as blanks. After a 72 h incubation, 20 µL of AlamarBlue was added to each well. The plates were incubated in darkness at 37 °C for 4-5 h. Using a Molecular Devices microplate reader, the fluorescence (F) was then read at an excitation wavelength of 544 nm and an emission wavelength of 590 nm.
Cell viability was then determined by subtracting the mean blank fluorescence (Fb) from the treated sample fluorescence (Fs) and expressing this as a percentage of the fluorescence of the blanked vehicle control (Fc). […] The results were […]
then plotted as a nonlinear regression, sigmoidal dose-response curves on Prism, from which the IC50 value for each drug was determined.
Fs − Fb x 100 = % Cell Viability
60 cell line in a dose-dependent manner.
(1 picture or pasted object on this page, not shown here)

| SMILES | toxicity towards MCF10A (MCF10A cells; 100 μM) | effect on MCF10A cell viability (MCF10A cells; 10 and 1 μM) | IC50 (HL-60 cells) |
| --- | --- | --- | --- |
| Cl.N=C(N)Nc1ccc(Oc2cccc(Nc3ccc(Cl)c(C(F)(F)F)c3)c2)cn1 [Compound 4, 1-(5-(3-((4-Chloro-3-(trifluoromethyl)phenyl)amino)phenoxy)pyridin-2-yl)guanidine hydrochloride] | shows toxicity | does not appear to affect in any way cell viability | 3480 ± 280 nM |
| Cl.Cl.N=C(N)Nc1ccc(Oc2cccc(NC(=N)Nc3ccc(Cl)c(C(F)(F)F)c3)c2)cn1 [Compound 2, 1-(4-Chloro-3-(trifluoromethyl)phenyl)-3-(3-((6-guanidinopyridin-3-yl)oxy)phenyl) guanidine dihydrochloride] | – | – | 2360 ± 140 nM |
